System: 454973-116-R2-J3-PDC spheroids, viability, % test/control
Assay: Anticancer human tumor 454973-116-R2-J3-PDC patient-derived pancreatic carcinoma cell line growth inhibition [GQUAD]
Conditions: spheroids with HUVEC and MSC; for IC50: curve of first compound; for viability, T/C: stronger effect = lower value
Summary of the method: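 Viability of tumor cells grown as complex spheroids with endothelial and stromal cells, exposed to drug combinations. Top concentration at or near clinical Cmax (else 10 microM), diluted in half-log increments.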

[1] = second compound 0.0316 µM, first compound 0.000999 µM
[2] = second compound 0.0316 µM, first compound 0.00316 µM
[3] = second compound 0.0316 µM, first compound 0.00999 µM
[4] = second compound 0.0316 µM, first compound 0.0316 µM
[5] = second compound 0.0316 µM, first compound 0.0999 µM
[6] = second compound 0.0316 µM, first compound 0.316 µM
[7] = second compound 0.1 µM, first compound 0.000999 µM
[8] = second compound 0.1 µM, first compound 0.00316 µM
[9] = second compound 0.1 µM, first compound 0.00999 µM
[10] = second compound 0.1 µM, first compound 0.0316 µM
[11] = second compound 0.1 µM, first compound 0.0999 µM
[12] = second compound 0.1 µM, first compound 0.316 µM
[13] = second compound 0.316 µM, first compound 0.000999 µM
[14] = second compound 0.316 µM, first compound 0.00316 µM
[15] = second compound 0.316 µM, first compound 0.00999 µM
[16] = second compound 0.316 µM, first compound 0.0316 µM
[17] = second compound 0.316 µM, first compound 0.0999 µM
[18] = second compound 0.316 µM, first compound 0.316 µM
[19] = second compound 1 µM, first compound 0.000999 µM
[20] = second compound 1 µM, first compound 0.00316 µM
[21] = second compound 1 µM, first compound 0.00999 µM
[22] = second compound 1 µM, first compound 0.0316 µM
[23] = second compound 1 µM, first compound 0.0999 µM
[24] = second compound 1 µM, first compound 0.316 µM
[25] = second compound 3.16 µM, first compound 0.000999 µM
[26] = second compound 3.16 µM, first compound 0.00316 µM
[27] = second compound 3.16 µM, first compound 0.00999 µM
[28] = second compound 3.16 µM, first compound 0.0316 µM
[29] = second compound 3.16 µM, first compound 0.0999 µM
[30] = second compound 3.16 µM, first compound 0.316 µM
[31] = second compound 10 µM, first compound 0.000999 µM
[32] = second compound 10 µM, first compound 0.00316 µM
[33] = second compound 10 µM, first compound 0.00999 µM
[34] = second compound 10 µM, first compound 0.0316 µM
[35] = second compound 10 µM, first compound 0.0999 µM
[36] = second compound 10 µM, first compound 0.316 µM
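Also: spheroids exposed to compounds for seven days.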
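For viability, T/C in this document: 100% = DMSO vehicle control viability.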

## Cn1ncnc1[C@H]1c2n[nH]c(=O)c3cc(F)cc(c23)N[C@@H]1c1ccc(F)cc1 + CN(C)c1ccc(Nc2c3ccc(NC(=O)CCN4CCCC4)cc3nc3cc(NC(=O)CCN4CCCC4)ccc23)cc1
Second compound 0.0316 µM
  IC50: > 0.316 µM
Second compound 0.1 µM
  IC50: > 0.316 µM
Second compound 0.316 µM
  IC50: > 0.316 µM
Second compound 1 µM
  IC50: > 0.316 µM
Second compound 3.16 µM
  IC50: > 0.316 µM
Second compound 10 µM
  IC50: > 0.316 µM
[1]
  viability, T/C: 106%
[2]
  viability, T/C: 94.7%
[3]
  viability, T/C: 94.2%
[4]
  viability, T/C: 87%
[5]
  viability, T/C: 90.9%
[6]
  viability, T/C: 80.7%
[7]
  viability, T/C: 103%
[8]
  viability, T/C: 94%
[9]
  viability, T/C: 96.6%
[10]
  viability, T/C: 89.4%
[11]
  viability, T/C: 81.6%
[12]
  viability, T/C: 72.3%
[13]
  viability, T/C: 95.2%
[14]
  viability, T/C: 97.6%
[15]
  viability, T/C: 87.3%
[16]
  viability, T/C: 91.7%
[17]
  viability, T/C: 77.7%
[18]
  viability, T/C: 71.6%
[19]
  viability, T/C: 90%
[20]
  viability, T/C: 84.7%
[21]
  viability, T/C: 90.8%
[22]
  viability, T/C: 66.4%
[23]
  viability, T/C: 79.8%
[24]
  viability, T/C: 64.3%
[25]
  viability, T/C: 90.8%
[26]
  viability, T/C: 89.9%
[27]
  viability, T/C: 80.8%
[28]
  viability, T/C: 62.8%
[29]
  viability, T/C: 82%
[30]
  viability, T/C: 64.6%
[31]
  viability, T/C: 76.1%
[32]
  viability, T/C: 74.6%
[33]
  viability, T/C: 72.5%
[34]
  viability, T/C: 63.8%
[35]
  viability, T/C: 57.8%
[36]
  viability, T/C: 58.9%

## CC[C@@]1(O)C(=O)OCc2c1cc1n(c2=O)Cc2cc3c(CN(C)C)c(O)ccc3nc2-1 + Cc1cnc(CNC(=O)c2c(=O)c3ccc(N4CCCN(C)CC4)nc3n3c2sc2ccccc23)cn1
Second compound 0.0316 µM
  IC50: 0.0295 µM
Second compound 0.1 µM
  IC50: 0.0204 µM
Second compound 0.316 µM
  IC50: 0.0175 µM
Second compound 1 µM
  IC50: 0.0244 µM
Second compound 3.16 µM
  IC50: 0.189 µM
Second compound 10 µM
  IC50: < 0.000999 µM
[1]
  viability, T/C: 104%
[2]
  viability, T/C: 95.8%
[3]
  viability, T/C: 84.9%
[4]
  viability, T/C: 49%
[5]
  viability, T/C: 21.9%
[6]
  viability, T/C: 23.7%
[7]
  viability, T/C: 90.8%
[8]
  viability, T/C: 90.2%
[9]
  viability, T/C: 77%
[10]
  viability, T/C: 33.4%
[11]
  viability, T/C: 24.8%
[12]
  viability, T/C: 23.1%
[13]
  viability, T/C: 79.9%
[14]
  viability, T/C: 69.1%
[15]
  viability, T/C: 55.6%
[16]
  viability, T/C: 43.1%
[17]
  viability, T/C: 39.2%
[18]
  viability, T/C: 32.9%
[19]
  viability, T/C: 67.1%
[20]
  viability, T/C: 67.6%
[21]
  viability, T/C: 54.9%
[22]
  viability, T/C: 48.4%
[23]
  viability, T/C: 50%
[24]
  viability, T/C: 47.4%
[25]
  viability, T/C: 61.2%
[26]
  viability, T/C: 63.4%
[27]
  viability, T/C: 60.2%
[28]
  viability, T/C: 49.6%
[29]
  viability, T/C: 61.7%
[30]
  viability, T/C: 42.7%
[31]
  viability, T/C: 19.2%
[32]
  viability, T/C: 17.5%
[33]
  viability, T/C: 57%
[34]
  viability, T/C: 45.9%
[35]
  viability, T/C: 0.31%
[36]
  viability, T/C: 0.23%
